What was measured:
[1] = test system: adult subjects with schizophrenia; test: PANSS general psychopathology subscale score, Clinical Study Three; type: in vivo, human; settings: for Change from Baseline in PASS General Psychopathology Subscale Score, Median / Change from Baseline in PASS General Psychopathology Subscale Score, Mean (SD) / Trt Effect (bifeprunox - placebo), PASS General Psychopathology Subscale Score / mean change (SD) from Baseline to Endpoint in PANSS general psychopathology subscale score: LOCF; for Change from Baseline in PASS General Psychopathology Subscale Score, Median / Change from Baseline in PASS General Psychopathology Subscale Score, Mean (SD) / Trt Effect (bifeprunox - placebo), PASS General Psychopathology Subscale Score: ITT population; for Trt Effect (bifeprunox - placebo), PASS General Psychopathology Subscale Score: ANCOVA; for PANSS general psychopathology subscale score, treatment effect (bifeprunox—placebo): Endpoint LOCF; for mean change (SD) from Baseline to Endpoint in PANSS general psychopathology subscale score: ITT
Description: (§1) SECONDARY OBJECTIVES To assess the efficacy of bifeprunox in treating schizophrenia using the Positive Symptom sub-scale score of the PANSS, the Negative Symptom sub-scale score of the PANSS, the General Psychopathology sub-scale of the PANSS, Brief Psychiatric Rating Scale (BPRS) total score derived from the PANSS, BPRS psychosis score derived from the PANSS, the Clinical Global Impression Severity of Illness score (CGI-S), the Clinical Global Impression Improvement score (CGI-I), CGI-I responder rate, PANSS responder rate based on the PANSS total score, Calgary Depression Scale for Schizophrenia (CDSS), and Subject Satisfaction rating.
(§2) There were four treatment arms in this study, approximately 144 subjects per arm. […] After completing the Single-Blind Placebo Lead-in Period of at least three days, bifeprunox-treated subjects were titrated from 0.25 mg up to 20 mg/day or 30 mg/day according to a standardized titration scheme over a seven- or eight-day period, respectively. When the assigned dose was reached, subjects were maintained at that dose for the remainder of the six week treatment period. […] Subjects were hospitalized (if not already inpatients) after eligibility for study entry was verified, starting from the Screening Visit until at least 10 days after Baseline. Subjects could be hospitalized longer than 10 days if considered medically necessary by the Investigator. Rating scale assessments for efficacy and abnormal movement disorders were done weekly except for Week 5. […] Subject satisfaction with study medication was assessed at Week 6.

[2] = test system: adult subjects with schizophrenia; test: Calgary Depression Scale for Schizophrenia (CDSS), Clinical Study Three; type: in vivo, human; settings: for CDSS Total Score, Trt Effect / Change from Baseline in CDSS Total Score, Mean (SD) / Change from Baseline in CDSS Total Score, Median / mean change (SD) from Baseline to Endpoint in CDSS score: LOCF; for CDSS score, treatment effect (bifeprunox, placebo): Endpoint LOCF; for mean change (SD) from Baseline to Endpoint in CDSS score: ITT
Description: as §1, §2

[3] = Pooled metabolic analysis, 6-week studies: body weight; settings: for ≧7% weight decrease, (%) / ≧7% weight increase, (%) / Weight, Mean (SD) change from baseline: 6-week placebo controlled trials, BX total doses, RISP 6 mg, OLZ 15 mg, HAL 10 mg; for Weight, Mean (SD) change from baseline: endpoint
Description: OBJECTIVE: To examine the metabolic effects of bifeprunox in patients with acute and stable schizophrenia.
METHODS: Metabolic data was compiled from one 6-month and four 6-week studies (i.e., a treatment period) of bifeprunox in patients with stable and acute schizophrenia, respectively. In the 6-month study, patients received bifeprunox (n=331) or placebo (PBO) (n=166). […] Metabolic evaluations included body weight, body mass index (BMI), plasma glucose and lipid profiles. Fasting glucose and lipid values were assessed in one 6-week study and in the 6-month study. Triglyceride:HDL ratio (TG:HDL) was calculated as a marker of insulin resistance. No statistical analyses were performed; only descriptive statistics are presented.

[4] = Bifeprunox 20 mg, Week 6/Endpoint
[5] = Bifeprunox 30 mg, Week 6/Endpoint

SMILES: O=c1[nH]c2cccc(N3CCN(Cc4cccc(-c5ccccc5)c4)CC3)c2o1 [Bifeprunox, 7-[4-([1,1′-biphenyl]-3-ylmethyl)-1-piperazinyl]-2(3H)-benzoxazolone]
- Change from Baseline in PASS General Psychopathology Subscale Score, Median ([1]; Bifeprunox 20 mg, Week 3): −6
- Change from Baseline in PASS General Psychopathology Subscale Score, Mean (SD) ([1]; Bifeprunox 20 mg, Week 4): −5.8 (10.1)
- Change from Baseline in PASS General Psychopathology Subscale Score, Median ([1]; Bifeprunox 20 mg, Week 4): −7
- Change from Baseline in PASS General Psychopathology Subscale Score, Mean (SD) [1, 4]: −6.1 (10.7)
- Change from Baseline in PASS General Psychopathology Subscale Score, Median [1, 4]: −7
- Trt Effect (bifeprunox - placebo), PASS General Psychopathology Subscale Score [1, 4]: −1.5
- Change from Baseline in PASS General Psychopathology Subscale Score, Mean (SD) ([1]; Bifeprunox 30 mg, Week 1): −2.8 (6.3)
- Change from Baseline in PASS General Psychopathology Subscale Score, Median ([1]; Bifeprunox 30 mg, Week 1): −3
- Change from Baseline in PASS General Psychopathology Subscale Score, Mean (SD) ([1]; Bifeprunox 30 mg, Week 2): −3.8 (8.2)
- Change from Baseline in PASS General Psychopathology Subscale Score, Median ([1]; Bifeprunox 30 mg, Week 2): −4
- Change from Baseline in PASS General Psychopathology Subscale Score, Mean (SD) ([1]; Bifeprunox 30 mg, Week 3): −5.0 (9.3)
- Change from Baseline in PASS General Psychopathology Subscale Score, Median ([1]; Bifeprunox 30 mg, Week 3): −4
- Change from Baseline in PASS General Psychopathology Subscale Score, Median ([1]; Bifeprunox 30 mg, Week 4): −5
- Change from Baseline in PASS General Psychopathology Subscale Score, Mean (SD) [1, 5]: −5.8 (10.3)
- Change from Baseline in PASS General Psychopathology Subscale Score, Median [1, 5]: −6
- Trt Effect (bifeprunox - placebo), PASS General Psychopathology Subscale Score [1, 5]: −0.9
- PANSS general psychopathology subscale score, treatment effect (bifeprunox—placebo) ([1]; bifeprunox 20 mg): −1.5
- mean change (SD) from Baseline to Endpoint in PANSS general psychopathology subscale score ([1]; bifeprunox 20 mg): −6.1 (10.7)
- PANSS general psychopathology subscale score, treatment effect (bifeprunox—placebo) ([1]; bifeprunox 30 mg): −0.9
- mean change (SD) from Baseline to Endpoint in PANSS general psychopathology subscale score ([1]; bifeprunox 30 mg): −5.8 (10.3)
- CDSS Total Score, Trt Effect ([2]; 20 mg versus placebo, Week 6, Endpoint): −0.54
- Change from Baseline in CDSS Total Score, Mean (SD) ([2]; 20 mg, Week 1): −0.86 (2.87)
- Change from Baseline in CDSS Total Score, Median ([2]; 20 mg, Week 1): 0.0
- Change from Baseline in CDSS Total Score, Mean (SD) ([2]; 20 mg, Week 2): −1.19 (3.30)
- Change from Baseline in CDSS Total Score, Median ([2]; 20 mg, Week 2): −1.0
- Change from Baseline in CDSS Total Score, Mean (SD) ([2]; 20 mg, Week 3): −1.41 (3.72)
- Change from Baseline in CDSS Total Score, Median ([2]; 20 mg, Week 3): −1.0
- Change from Baseline in CDSS Total Score, Mean (SD) ([2]; 20 mg, Week 4): −1.35 (3.66)
- Change from Baseline in CDSS Total Score, Median ([2]; 20 mg, Week 4): −1.0
- Change from Baseline in CDSS Total Score, Mean (SD) ([2]; 20 mg, Week 6, Endpoint): −1.30 (3.85)
- Change from Baseline in CDSS Total Score, Median ([2]; 20 mg, Week 6, Endpoint): 0.0
- CDSS Total Score, Trt Effect ([2]; 30 mg versus placebo, Week 6, Endpoint): −0.34
- Change from Baseline in CDSS Total Score, Mean (SD) ([2]; 30 mg, Week 1): −0.77 (2.63)
- Change from Baseline in CDSS Total Score, Median ([2]; 30 mg, Week 1): 0.0
- Change from Baseline in CDSS Total Score, Mean (SD) ([2]; 30 mg, Week 2): −0.69 (2.97)
- Change from Baseline in CDSS Total Score, Median ([2]; 30 mg, Week 2): 0.0
- Change from Baseline in CDSS Total Score, Mean (SD) ([2]; 30 mg, Week 3): −0.60 (3.10)
- Change from Baseline in CDSS Total Score, Median ([2]; 30 mg, Week 3): 0.0
- Change from Baseline in CDSS Total Score, Mean (SD) ([2]; 30 mg, Week 4): −0.65 (3.07)
- Change from Baseline in CDSS Total Score, Median ([2]; 30 mg, Week 4): 0.0
- Change from Baseline in CDSS Total Score, Mean (SD) ([2]; 30 mg, Week 6, Endpoint): −0.79 (3.02)
- Change from Baseline in CDSS Total Score, Median ([2]; 30 mg, Week 6, Endpoint): −1.0
- CDSS score, treatment effect (bifeprunox, placebo) ([2]; bifeprunox 20 mg (first mention)): −0.54
- mean change (SD) from Baseline to Endpoint in CDSS score ([2]; bifeprunox 20 mg): −1.30 (3.85)
- mean change (SD) from Baseline to Endpoint in CDSS score ([2]; bifeprunox 30 mg): −0.79 (3.02)
- CDSS score, treatment effect (bifeprunox, placebo) ([2]; bifeprunox): −0.34
- ≧7% weight decrease, (%) ([3]; baseline BMI 18.5-25 kg/m^2): 5.4%
- ≧7% weight increase, (%) ([3]; baseline BMI 18.5-25 kg/m^2): 2.4%
- ≧7% weight decrease, (%) ([3]; baseline BMI <18.5 kg/m^2): 3.7%
- ≧7% weight increase, (%) ([3]; baseline BMI <18.5 kg/m^2): 3.7%
- ≧7% weight decrease, (%) ([3]; baseline BMI >25-30 kg/m^2): 8.8%
- ≧7% weight increase, (%) ([3]; baseline BMI >25-30 kg/m^2): 1.8%
- ≧7% weight decrease, (%) ([3]; baseline BMI >30 kg/m^2): 5.8%
- ≧7% weight increase, (%) ([3]; baseline BMI >30 kg/m^2): 1.4%
- ≧7% weight decrease, (%) ([3]; baseline BMI All): 6.2%
- ≧7% weight increase, (%) ([3]; baseline BMI All): 2.1%
- Weight, Mean (SD) change from baseline ([3]; baseline BMI 18.5-25 kg/m^2): −0.4 (2.6) kg
- Weight, Mean (SD) change from baseline ([3]; baseline BMI <18.5 kg/m^2): 0.0 (1.7) kg
- Weight, Mean (SD) change from baseline ([3]; baseline BMI >25-30 kg/m^2): −0.9 (3.2) kg
- Weight, Mean (SD) change from baseline ([3]; baseline BMI >30 kg/m^2): −1.4 (3.9) kg
- Weight, Mean (SD) change from baseline ([3]; baseline BMI All): −0. (3.2) kg
- mean weight decrease ([3]; 6-week studies, pooled): 0.8 kg
- mean weight change ([3]; 6-week studies, pooled (overall summary)): -0.8 kg
- mean change in weight at endpoint ([3]; 6-week studies, patients with nausea or vomiting): -1.7 kg
- mean change in weight at endpoint ([3]; 6-week studies, patients without nausea or vomiting): -0.4 kg

From patent US20090068290A1, “BIFEPRUNOX DOSES FOR TREATING SCHIZOPHRENIA” (priority 2006, published 2009)
